# What was measured:
# [1] = system: dairy cows; conditions: administered intramammarily in dairy cows; cited from earlier work
# [2] = system: dairy cows with clinical mild or moderate mastitis; experiment: Clinical field study: response thresholds to mechanical stimuli (hypersensitivity) in dairy cows with clinical mastitis; type: in vivo; conditions: adjunct to intramammary cefquinome, hind limbs, 6-8 examinations over 45 days, meloxicam groups vs antibiotics alone P<0.001
# Protocol: Therefore, as already mentioned, dairy cows were studied to assess pain associated with moderate or mild mastitis. Based on the abovementioned study directed to the newly established method for the measurement of pain in food producing animals, a clinical field study was used to investigate, besides painful chronic conditions in cows with mild and moderate mastitis, the analgesic efficacy and long duration of action of meloxicam. In such clinical field study, meloxicam was administered only once as adjunct to intramammary antibiotic therapy and was compared to a second group where animals received re-treatments with meloxicam after 3 and 6 days. A third group received the antibiotic stand alone therapy. The distance between the hocks was measured as a proxy indicator of altered cow stance. Response thresholds to mechanical stimuli were measured on each hind limb using a modification of the method described by Nolan and others (A. Nolan, A. Livingston, R. Morris, and A. Waterman, Techniques for comparison of thermal and mechanical nociceptive stimuli in the sheep, J. Pharmacol. Methods 1987, 17, pp. 39-49). […] Response thresholds to mechanical stimuli were measured on each hind limb. […]
Compound,long lasting analgesic activity [1],threshold responses to mechanical stimuli (mechanical hyperalgesia) [2]
Cc1c(Nc2ncccc2C(=O)O)cccc1C(F)(F)F [flunixin meglumine],did not achieve a long lasting analgesic activity,–
"CO/N=C(\C(=O)N[C@@H]1C(=O)N2C(C(=O)[O-])=C(C[n+]3cccc4c3CCCC4)CS[C@H]12)c1csc(N)n1 [antibiotics, cefquinome]",–,greater differences

# — patent publication US20050288280A1, “Meloxicam in veterinary medicine” (Boehringer Ingelheim Vetmedica GmbH, priority 2004, published 2005)
